According to US20190167771A1, “CONTROL ANGIOGENESIS BY REGULATING PHOSPHORYLATION OF SERYL-tRNA SYNTHETASE (SerRS)” (The Scripps Research Institute, priority 2016, published 2019):

Assays:
ATM/ATR kinases = assay: Phosphorylation of exogenously expressed Flag-tagged SerRS in hypoxic HEK293 cells (IP/IB with anti-P-SQ); assay type: cell-based, human; conditions: hypoxia 12 hours
VEGFA promoter = assay: Chromatin immunoprecipitation (ChIP) on VEGFA promoter in HEK293 cells; assay type: cell-based, human; conditions: ChIP and qPCR
Description: (§1) In FIG. 2A, wild type SerRS (SerRS^WT), its mutants with double substitutions of serine 101 and 241 with alanine or aspartic acid residues (SerRS^S101A/S241A and SerRS^S101D/S241D), or empty vector were transfected into HEK293 cells. The expression levels of SerRS proteins was measured by immunoblot (bottom) and VEGFA expression was determined by qRT-PCR (means±SEM from three independent experiments; ***P<0.0001). […] At 3 day post fertilization (dpf), embryos were harvested and Vegfa expression levels were measured by qRT-PCR (means±SEM, n=125-211; *P<0.01, **P<0.001) (B). The development of intersegmental vessel (ISV) at 3 dpf was examined (C) and the statistics of ISV abnormal branching rescued by SerRS^WT or mutant SerRS mRNA injections was analyzed (D; χ^2-test,* P>0.05 vs SerRS^WT, **P>0.1 vs SerRS-MO, ***P<1×10^−28 vs control-MO). […] In FIG. 2G, the binding of endogenous SerRS on VEGFA promoter during hypoxia course was monitored by ChIP (means±SEM from three independent experiments; *P<0.05, **P<0.005 vs normal).
Cells were fixed with formaldehyde (1% final concentration) for 10 min at room temperature. […] After 3 washes, ChIPed DNA was analyzed on the StepOnePlus Real-Time PCR system using SYBR Select Master Mix (Applied Biosystems). […]

[1] = test system: SerRS binding site on human VEGFA promoter; assay: EMSA with 32P-labeled 27-bp DNA fragment of the VEGFA promoter; conditions: recombinant protein
VEGFA = VEGFA expression by qRT-PCR in HEK293 cells transfected with SerRS constructs; assay type: cell-based, human; conditions: HEK293 cells transfected with construct
Description: as §1, with “normal). […]” for “normal).”
HEK293 cells were transfected with wild type (WT) SerRS or SerRS mutants. […] At 24 hours post-transfection, cells were harvested and VEGFA expression levels were measured by qRT-PCR and relative VEGFA transcription were plotted after being normalized to 1-actin (means±: SEM).

| Substance | phosphorylation of exogenously expressed SerRS (ATM/ATR kinases) | binding on VEGFA promoter (VEGFA promoter) | direct binding to 27-bp DNA fragment from the VEGFA promoter [1] | repression of VEGFA transcription (VEGFA) |
| --- | --- | --- | --- | --- |
| SerRS^S101A/S241A: phosphorylation-deficient human SerRS double mutant, serine 101 and 241 to alanine, SEQ ID NO: 4 (mouse version in matrigel assay) | much weaker phosphorylation than wild type SerRS |  |  |  |
| SerRS^S101D/S241D: SerRS with double substitutions of S101 and S241 with aspartic acid, mimics the phosphorylated SerRS |  | decreased binding on VEGFA promoter | attenuated | can no longer repress VEGFA transcription |
